The target of one test is Melanocortin receptor 3 (Homo sapiens, UniProt P41968). The format is cell membranes, Membrane. The conditions noted are these: hek293. Also: in other assays of this panel Not Active means under 50% inhibition at 10 µM.
Test [1] concerns the target 5-hydroxytryptamine receptor 6 (Homo sapiens, UniProt P50406). The format is cell membranes, HeLa, Membrane. Also: in other assays of this panel Not Active means under 50% inhibition at 10 µM.
For test [2], the target named is Prostaglandin G/H synthase 1 (Homo sapiens, UniProt P23219). Kind of test: biochemical. In kind it is tissue-based, Platelet.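 Also: inhibition of COX-1 enzyme activity, with arachidonic acid supplied as substrate; in other assays of this panel Not Active means under 50% inhibition at 10 µM.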
Chain of Prostaglandin G/H synthase 1 (P23219 whole entry): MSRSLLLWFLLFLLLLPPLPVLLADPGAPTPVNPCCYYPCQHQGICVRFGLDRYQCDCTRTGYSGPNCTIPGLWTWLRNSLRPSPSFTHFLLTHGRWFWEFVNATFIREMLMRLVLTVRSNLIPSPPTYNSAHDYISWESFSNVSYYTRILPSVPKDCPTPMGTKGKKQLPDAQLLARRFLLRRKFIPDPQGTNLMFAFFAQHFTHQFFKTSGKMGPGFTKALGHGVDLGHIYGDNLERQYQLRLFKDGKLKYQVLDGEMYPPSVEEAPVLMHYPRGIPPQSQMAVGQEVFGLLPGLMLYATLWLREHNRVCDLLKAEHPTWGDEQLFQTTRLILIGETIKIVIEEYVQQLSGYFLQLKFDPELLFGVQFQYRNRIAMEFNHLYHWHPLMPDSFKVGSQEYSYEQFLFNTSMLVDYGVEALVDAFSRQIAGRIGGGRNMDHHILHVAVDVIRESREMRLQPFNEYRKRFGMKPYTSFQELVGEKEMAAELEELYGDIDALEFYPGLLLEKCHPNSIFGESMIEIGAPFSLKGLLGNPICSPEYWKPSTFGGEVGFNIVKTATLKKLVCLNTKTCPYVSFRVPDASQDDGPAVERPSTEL
The target of test [3] is 5-hydroxytryptamine receptor 1B (Rattus norvegicus, UniProt P28564). The format is cell membranes, Wistar, Cerebral cortex, Membrane. Also: in other assays of this panel Not Active means under 50% inhibition at 10 µM.
Chain of 5-hydroxytryptamine receptor 1B (P28564 whole entry): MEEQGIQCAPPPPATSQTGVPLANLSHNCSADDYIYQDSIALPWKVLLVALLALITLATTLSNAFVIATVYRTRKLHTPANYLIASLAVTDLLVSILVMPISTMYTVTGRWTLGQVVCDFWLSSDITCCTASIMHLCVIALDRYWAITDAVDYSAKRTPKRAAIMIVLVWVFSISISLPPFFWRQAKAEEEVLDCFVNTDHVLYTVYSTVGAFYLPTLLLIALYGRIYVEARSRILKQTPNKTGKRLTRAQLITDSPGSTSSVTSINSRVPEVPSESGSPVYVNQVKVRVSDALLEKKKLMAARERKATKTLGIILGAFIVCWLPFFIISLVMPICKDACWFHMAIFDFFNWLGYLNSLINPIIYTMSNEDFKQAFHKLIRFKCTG
A further test addresses T1, Caspase-1 (Homo sapiens, UniProt P29466).
T1 sequence (P29466 whole entry): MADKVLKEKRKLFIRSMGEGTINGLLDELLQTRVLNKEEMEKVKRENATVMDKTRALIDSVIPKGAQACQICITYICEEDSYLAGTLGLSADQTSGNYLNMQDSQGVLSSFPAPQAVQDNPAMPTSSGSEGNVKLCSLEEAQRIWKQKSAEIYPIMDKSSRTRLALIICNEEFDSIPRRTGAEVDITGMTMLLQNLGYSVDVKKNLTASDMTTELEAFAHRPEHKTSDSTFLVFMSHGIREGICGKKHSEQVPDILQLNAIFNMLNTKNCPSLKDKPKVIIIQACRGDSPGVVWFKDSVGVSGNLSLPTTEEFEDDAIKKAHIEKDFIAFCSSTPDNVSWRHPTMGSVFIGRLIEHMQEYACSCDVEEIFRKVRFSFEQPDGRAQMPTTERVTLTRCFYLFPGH
Also on record: species or system Escherichia coli.

The target of the next test is Carbonic anhydrase 2 (Homo sapiens, UniProt P00918). Kind of test: DRUGMATRIX: Carbonic Anhydrase II enzyme inhibition (substrate: 4-Nitrophenyl acetate (4-NPA)). In kind it is tissue-based, Erythrocyte. The conditions noted are these: erythrocyte; Not Active = under 50% inhibition at 10 µM.

Chain of Melanocortin receptor 3 (P41968 whole entry): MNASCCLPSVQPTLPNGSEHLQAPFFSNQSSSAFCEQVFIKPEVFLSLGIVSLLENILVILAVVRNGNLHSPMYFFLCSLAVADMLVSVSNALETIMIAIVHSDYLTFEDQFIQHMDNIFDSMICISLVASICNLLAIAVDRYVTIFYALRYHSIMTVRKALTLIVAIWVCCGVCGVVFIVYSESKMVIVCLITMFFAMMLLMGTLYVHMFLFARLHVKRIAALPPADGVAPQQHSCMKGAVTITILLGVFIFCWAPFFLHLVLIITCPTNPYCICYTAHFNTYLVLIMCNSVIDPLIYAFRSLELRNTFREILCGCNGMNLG
Chain of 5-hydroxytryptamine receptor 6 (P50406 whole entry): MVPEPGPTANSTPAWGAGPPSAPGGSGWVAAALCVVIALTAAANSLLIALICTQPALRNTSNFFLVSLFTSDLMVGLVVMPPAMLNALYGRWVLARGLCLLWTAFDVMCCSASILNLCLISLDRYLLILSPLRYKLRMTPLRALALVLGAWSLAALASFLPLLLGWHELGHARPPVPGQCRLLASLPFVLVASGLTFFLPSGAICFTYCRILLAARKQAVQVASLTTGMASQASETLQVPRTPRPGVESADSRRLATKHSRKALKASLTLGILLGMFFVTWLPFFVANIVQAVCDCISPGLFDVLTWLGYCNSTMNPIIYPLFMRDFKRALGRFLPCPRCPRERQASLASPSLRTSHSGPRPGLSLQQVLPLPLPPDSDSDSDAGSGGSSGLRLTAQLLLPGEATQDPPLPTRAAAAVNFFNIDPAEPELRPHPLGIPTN

As usually defined, the IC50 is the point on the concentration scale where inhibition reaches its midpoint. Consider `CCCCC(=O)N(Cc1ccc(-c2ccccc2-c2nnn[nH]2)cc1)[C@H](C(=O)O)C(C)C`, for which the IC50 result (at Melanocortin receptor 3; in test [1] (hela); in test [2] (platelet); in test [3]; against Caspase-1; against Carbonic anhydrase 2) was “Not Active” each time.

For `O=C(O)COc1ccc(C(=O)c2cccs2)c(Cl)c1Cl`, the IC50 entry (at Melanocortin receptor 3; in test [1] (hela); in test [2] (platelet); in test [3]; against Caspase-1; against Carbonic anhydrase 2) was “Not Active” in each case.

Broadly, the Ki is the dissociation constant of the complex between target and ligand, obtained from inhibition or displacement. As to `CN1[C@@H]2CC[C@H]1C[C@@H](OC(c1ccccc1)c1ccccc1)C2` [BENZTROPINE], the IC50 entry was “Not Active” on Melanocortin receptor 3; 2790 nM in test [1] (read-out: IC50); “Not Active” in test [2] (platelet); “Not Active” in test [3]; “Not Active” against Caspase-1; “Not Active” at Carbonic anhydrase 2. Besides, in test [1] (read-out: Ki), the Ki turned out to be 1290 nM.

Turning to `C[C@@](Cc1ccc(O)c(O)c1)(NN)C(=O)O.O` [CARBIDOPA], the concentration for half-maximal inhibition (IC50) entry (against Melanocortin receptor 3; in test [1] (hela); in test [2] (platelet); in test [3]; at Caspase-1; against Carbonic anhydrase 2) was “Not Active” throughout.

On to `CN1CCN(C2=Nc3cc(Cl)ccc3Nc3ccccc32)CC1` [CLOZAPINE], for which the IC50 entry (on Melanocortin receptor 3; in test [2] (platelet); against Caspase-1; against Carbonic anhydrase 2) was “Not Active” throughout.

On to `CC(C)NC[C@@H](O)COc1cccc2ccccc12` [DEXPROPRANOLOL], for which the IC50 result (at Melanocortin receptor 3; in test [1] (hela); in test [2] (platelet); in test [3]; against Caspase-1; on Carbonic anhydrase 2) was “Not Active” each time.

`CC(C)NC[C@H](O)COc1cccc2ccccc12` [LEVOPROPRANOLOL]: the IC50 result at Melanocortin receptor 3 was “Not Active”; in test [1] (read-out: IC50) it was 998 nM; in test [2] (platelet), “Not Active”; in test [3], “Not Active”; at Caspase-1 it was “Not Active”; at Carbonic anhydrase 2 it was “Not Active”. Also, the Ki in test [1] (read-out: Ki) was determined as 463 nM.

As for `O=C(O)CCCCC1CCSS1` (stereo not drawn) [LIPOIC ACID, ALPHA], the IC50 entry (at Melanocortin receptor 3; in test [1] (hela); in test [2] (platelet); in test [3]; against Caspase-1; on Carbonic anhydrase 2) was “Not Active” each time.

As to `CN(C)C(=O)C(CCN1CCC(O)(c2ccc(Cl)cc2)CC1)(c1ccccc1)c1ccccc1` [LOPERAMIDE], the IC50 entry (against Melanocortin receptor 3; in test [1] (hela); in test [2] (platelet); in test [3]; against Caspase-1; on Carbonic anhydrase 2) was “Not Active” throughout.

As to `Clc1ccc(COC(Cn2ccnc2)c2ccc(Cl)cc2Cl)c(Cl)c1` (stereo unspecified) [MICONAZOLE], the IC50 in test [1] (read-out: IC50) is 10900 nM; in test [2] (platelet), “Not Active”; in test [3] (read-out: IC50), 20600 nM; against Caspase-1, “Not Active”; against Carbonic anhydrase 2, “Not Active”. The results for the Ki in test [1] (read-out: Ki) and in test [3] (read-out: Ki) were 5060 nM and 9360 nM, respectively.

Turning to `Oc1ccc2c3c1O[C@H]1[C@@H](O)CC[C@@]4(O)[C@@H](C2)N(CC2CCC2)CC[C@]314` [NALBUPHINE], the IC50 entry (against Melanocortin receptor 3; in test [1] (hela); in test [2] (platelet); in test [3]; against Caspase-1; on Carbonic anhydrase 2) was “Not Active” throughout.

On to `C[C@]12C=CC(=O)C=C1CC[C@@H]1[C@@H]2C(=O)C[C@@]2(C)[C@H]1CC[C@]2(O)C(=O)CO` [PREDNISONE], for which the IC50 entry (against Melanocortin receptor 3; in test [1] (hela); in test [2] (platelet); in test [3]; against Caspase-1; against Carbonic anhydrase 2) was “Not Active” throughout.

With `OCCOCCN1CCN(C2=Nc3ccccc3Sc3ccccc32)CC1` [QUETIAPINE], the IC50 entry (against Melanocortin receptor 3; in test [1] (hela); in test [2] (platelet); in test [3]; against Caspase-1; against Carbonic anhydrase 2) was “Not Active” in each case.

Turning to `COC(=O)[C@H]1[C@H]2C[C@@H]3c4[nH]c5cc(OC)ccc5c4CCN3C[C@H]2C[C@@H](OC(=O)c2cc(OC)c(OC)c(OC)c2)[C@@H]1OC` [RESERPINE], the IC50 entry (against Melanocortin receptor 3; in test [1] (hela); in test [2] (platelet); in test [3]; on Caspase-1; on Carbonic anhydrase 2) was “Not Active” throughout.

Consider `O=C(O)c1ccccc1O` [SALICYLIC ACID], for which the concentration for half-maximal inhibition (IC50) result (against Melanocortin receptor 3; in test [1] (hela); in test [2] (platelet); in test [3]; against Caspase-1; on Carbonic anhydrase 2) was “Not Active” each time.

For the compound `C[S+]([O-])c1ccc(-c2nc(-c3ccncc3)c(-c3ccc(F)cc3)[nH]2)cc1` (stereo unspecified) [SB-203580], the IC50 result (on Melanocortin receptor 3; in test [1] (hela); in test [2] (platelet); in test [3]; against Caspase-1; against Carbonic anhydrase 2) was “Not Active” in each case.

As for `CC1CCC(NC(=O)N(CCCl)N=O)CC1` (stereo unspecified) [SEMUSTINE], the IC50 result (on Melanocortin receptor 3; in test [1] (hela); in test [2] (platelet); in test [3]; at Caspase-1; on Carbonic anhydrase 2) was “Not Active” in each case.

As to `O=C1C[C@@H]2OCC=C3CN4CC[C@]56c7ccccc7N1[C@H]5[C@H]2[C@H]3C[C@H]46` [STRYCHNINE], the concentration for half-maximal inhibition (IC50) result (against Melanocortin receptor 3; in test [1] (hela); in test [2] (platelet); in test [3]; on Caspase-1; against Carbonic anhydrase 2) was “Not Active” in each case.

For the compound `C[N+](C)(C)CCOC(=O)CCC(=O)OCC[N+](C)(C)C.[Cl-].[Cl-]` [SUCCINYLCHOLINE CHLORIDE], the IC50 result (against Melanocortin receptor 3; in test [1] (hela); in test [2] (platelet); in test [3]; against Caspase-1; on Carbonic anhydrase 2) was “Not Active” each time.

In the case of `Nc1ccc(S(=O)(=O)NC(=O)c2ccccc2)cc1` [SULFABENZAMIDE], the IC50 entry (at Melanocortin receptor 3; in test [1] (hela); in test [2] (platelet); in test [3]; at Caspase-1; on Carbonic anhydrase 2) was “Not Active” in each case.

For `CCCCCCCCNC(C)C(O)c1ccc(SC(C)C)cc1` (stereo unspecified) [SULOCTIDIL], the IC50 result (against Melanocortin receptor 3; in test [1] (hela); in test [2] (platelet); in test [3]; against Caspase-1; at Carbonic anhydrase 2) was “Not Active” throughout.

Regarding `O=c1[nH]c(=O)n(C2CCCO2)cc1F` (stereo unspecified) [TEGAFUR], the IC50 entry (at Melanocortin receptor 3; in test [1] (hela); in test [2] (platelet); in test [3]; on Caspase-1; at Carbonic anhydrase 2) was “Not Active” each time.

For the compound `CC(=N)S` [THIOACETAMIDE], the IC50 entry (against Melanocortin receptor 3; in test [1] (hela); in test [2] (platelet); in test [3]; against Caspase-1; against Carbonic anhydrase 2) was “Not Active” each time.

Turning to `Cc1ccc(C(=O)c2ccc(CC(=O)O)n2C)cc1` [TOLMETIN], the IC50 result on Melanocortin receptor 3 is “Not Active”; in test [1] (hela) it was “Not Active”; in test [2] (read-out: IC50) it was 41 nM; in test [3] it was “Not Active”; against Caspase-1, “Not Active”; against Carbonic anhydrase 2, “Not Active”.

Regarding `CC(=O)OCC(COC(C)=O)OC(C)=O` [TRIACETIN], the IC50 entry (at Melanocortin receptor 3; in test [1] (hela); in test [2] (platelet); in test [3]; on Caspase-1; against Carbonic anhydrase 2) was “Not Active” each time.

Turning to `CN1CCN(CCCN2c3ccccc3Sc3ccc(C(F)(F)F)cc32)CC1` [TRIFLUOPERAZINE], the IC50 result (against Melanocortin receptor 3; in test [1] (hela); in test [2] (platelet); in test [3]; against Caspase-1; at Carbonic anhydrase 2) was “Not Active” in each case.

As to TRANSPLATIN, the IC50 result (against Melanocortin receptor 3; in test [1] (hela); in test [2] (platelet); in test [3]; on Caspase-1; on Carbonic anhydrase 2) was “Not Active” throughout. Moreover, the inhibition constant (Ki) entry (on Melanocortin receptor 3; in test [1] (hela); in test [2] (platelet); in test [3]; at Caspase-1; on Carbonic anhydrase 2) was “Not Active” in each case.

For ZIRCONIUM(IV) CHLORIDE, the IC50 result (on Melanocortin receptor 3; in test [1] (hela); in test [2] (platelet); in test [3]; on Caspase-1; against Carbonic anhydrase 2) was “Not Active” each time. Moreover, the inhibition constant Ki result (at Melanocortin receptor 3; in test [1] (hela); in test [2] (platelet); in test [3]; at Caspase-1; at Carbonic anhydrase 2) was “Not Active” each time.
